The text below walks through data of patent US20030036532A1, “Use of 2-phenylene diamine derivatives for the treatment of infections” (priority 2000, published 2003).

For this assay, the system named is Plasmodium falciparum. Description: antimalarial activity in in vitro cultures of Plasmodium falciparum, inhibition of [3H]-hypoxanthine incorporation. Format: cell-based. Conditions: inhibition of tritium incorporation relative to comparison without substance, 48 h + 24 h incubation; for inhibition at 10 µM / inhibition at 100 µM: Plasmodium falciparum; for inhibition at 10 µM / % Inhibition at 10 μM: 10 μM compound; for inhibition at 100 µM / % Inhibition at 100 μM: 100 μM compound; for % Inhibition at 1 μM: 1 μM compound. The procedure: To determine the anti-malaria activity, for example, the inhibition of the growth of malaria parasites in blood cultures is determined. […] The plates are incubated at 37° C., 3% CO2 and 5% O2 over a period of 48 hours. 30 μl of medium supplemented with 27 μCi ml^−1 [^3H]-hypoxanthine were then added to each well. After 24 hours' incubation, the parasites were harvested by filtration through glass fiber filters and the incorporated radioactivity was measured. Inhibition of parasite growth was measured as the percentage inhibition of tritium incorporation relative to a comparison without substance. The table states the percentage inhibition in dependence of the concentrations.

Consider `CCCCCCCCCCCCCCCCCCCC(=O)Nc1ccc(NC(=O)Cc2ccc(C)cc2)c(C(=O)c2ccccc2)c1` [compound 10, N-[3-benzoyl-4-[[2-(4-methylphenyl)acetyl]amino]phenyl]eicosanoic Acid Amide], for which the inhibition at 10 µM turned out to be 0% and the inhibition at 100 µM is 99%.

For `CCCCCCCCCCCCCCCC(=O)NCCC(=O)Nc1ccc(NC(=O)Cc2ccccc2)c(C(=O)c2ccccc2)c1` [compound 11, N-[3-[3-benzoyl-4-[(2-phenylacetyl)amino]phenylamino]-3-oxopropyl]-hexadecanoic Acid Amide], the inhibition at 10 µM amounted to 0% and the inhibition at 100 µM came to 98%.

On to `Cc1ccc(CC(=O)Nc2ccc(NC(=O)CNC(=O)C=Cc3ccc(-c4ccccc4)cc3)cc2C(=O)c2ccccc2)cc1` [compound 12, N-[2-[3-benzoyl-4-[[2-(4-methylphenyl)acetyl]amino]phenylamino]-2-oxo-ethyl]-4-phenylcinnamic Acid Amide], for which the inhibition at 10 µM was determined as 67% and the inhibition at 100 µM stood at 89%.

Turning to `O=C(C=Cc1ccc(OCc2ccccc2)cc1)NCCC(=O)Nc1ccc(NC(=O)Cc2ccccc2)c(C(=O)c2ccccc2)c1` [compound 13, N-[3-[3-benzoyl-4-[(2-phenylacetyl)amino]phenylamino]-3-oxopropyl]-4-benzyl-oxycinnamic Acid Amide], the inhibition at 10 µM turned out to be 97% and the inhibition at 100 µM amounted to 95%.

With `Cc1ccc(CC(=O)Nc2ccc(NC(=O)c3cccnc3)cc2C(=O)c2ccccc2)cc1` [compound 14, N-[3-benzoyl-4-[2-(4-methylphenyl)acetyl]amino]phenylnicotinic Acid Amide], the “% Inhibition at 10 μM” value is 0% and the “% Inhibition at 100 μM” value is recorded as 34%.

Consider `Cc1ccc(CC(=O)Nc2ccc(NC(=O)c3ccccc3)cc2C(=O)c2ccccc2)cc1` [compound 15], for which the “% Inhibition at 1 μM” value amounted to 0%, the “% Inhibition at 10 μM” value is 77% and the “% Inhibition at 100 μM” value is listed as 96%.

As for `Cc1ccc(CC(=O)Nc2ccc(NC(=O)Cc3ccccc3)cc2C(=O)c2ccccc2)cc1` [compound 16], the “% Inhibition at 1 μM” value is 0%, the “% Inhibition at 10 μM” value was found to be 0% and the “% Inhibition at 100 μM” value is 94%.

For `Cc1ccc(CC(=O)Nc2ccc(NC(=O)CCc3ccccc3)cc2C(=O)c2ccccc2)cc1` [compound 17], the “% Inhibition at 1 μM” value came to 0%, the “% Inhibition at 10 μM” value is reported as 91% and the “% Inhibition at 100 μM” value is 94%.

As for `Cc1ccc(CC(=O)Nc2ccc(NC(=O)CCC3CCCCC3)cc2C(=O)c2ccccc2)cc1` [compound 18], the “% Inhibition at 1 μM” value is 9%, the “% Inhibition at 10 μM” value is on record as 98% and the “% Inhibition at 100 μM” value worked out at 98%.

Turning to `Cc1ccc(CC(=O)Nc2ccc(NC(=O)CCCc3ccccc3)cc2C(=O)c2ccccc2)cc1` [compound 19], the “% Inhibition at 1 μM” value is 0%, the “% Inhibition at 10 μM” value is given as 95% and the “% Inhibition at 100 μM” value amounted to 97%.

On to `Cc1ccc(CC(=O)Nc2ccc(NC(=O)CCCCc3ccccc3)cc2C(=O)c2ccccc2)cc1` [compound 20], for which the “% Inhibition at 1 μM” value worked out at 0%, the “% Inhibition at 10 μM” value turned out to be 94% and the “% Inhibition at 100 μM” value came out at 97%.

Turning to `Cc1ccc(CC(=O)Nc2ccc(NC(=O)C=Cc3ccccc3)cc2C(=O)c2ccccc2)cc1` [compound 21], the “% Inhibition at 1 μM” value was 0%, the “% Inhibition at 10 μM” value stood at 95% and the “% Inhibition at 100 μM” value is recorded as 94%.

Consider `Cc1ccc(CC(=O)Nc2ccc(NC(=O)C=Cc3ccc([N+](=O)[O-])cc3)cc2C(=O)c2ccccc2)cc1` [compound 22], for which the “% Inhibition at 1 μM” value is 0%, the “% Inhibition at 10 μM” value came to 82% and the “% Inhibition at 100 μM” value is recorded as 88%.

`Cc1ccc(CC(=O)Nc2ccc(NC(=O)C=Cc3ccc(-c4ccccc4)cc3)cc2C(=O)c2ccccc2)cc1` [compound 23, N-[3-[3-benzoyl-4-[2-(4-methylphenyl)acetyl]amino]phenylamino]-4-phenyl-cinnamic Acid Amide]: the “% Inhibition at 1 μM” value stood at 82%, the “% Inhibition at 10 μM” value turned out to be 94% and the “% Inhibition at 100 μM” value is 94%.

Regarding `Cc1ccc(CC(=O)Nc2ccc(NC(=O)C=Cc3ccc(OCc4ccccc4)cc3)cc2C(=O)c2ccccc2)cc1` [compound 24], the “% Inhibition at 1 μM” value came to 85%, the “% Inhibition at 10 μM” value is on record as 96% and the “% Inhibition at 100 μM” value turned out to be 97%.

With `Cc1ccc(CC(=O)Nc2ccc(NC(=O)c3cccc4ccccc34)cc2C(=O)c2ccccc2)cc1` [compound 26], the “% Inhibition at 1 μM” value is given as 0%, the “% Inhibition at 10 μM” value was 65% and the “% Inhibition at 100 μM” value was 93%.

With `Cc1ccc(CC(=O)Nc2ccc(NC(=O)C3c4ccccc4-c4ccccc43)cc2C(=O)c2ccccc2)cc1` [compound 28], the “% Inhibition at 1 μM” value turned out to be 0%, the “% Inhibition at 10 μM” value is listed as 0% and the “% Inhibition at 100 μM” value stood at 98%.

For `Cc1ccc(CC(=O)Nc2ccc(-c3ccccc3CNC(=O)CS)cc2C(=O)c2ccccc2)cc1` [compound 29], the “% Inhibition at 1 μM” value is listed as 0%, the “% Inhibition at 10 μM” value was determined as 91% and the “% Inhibition at 100 μM” value came out at 97%.

For the molecule `Cc1ccc(CC(=O)Nc2ccc(NC(=O)COCc3ccccc3)cc2C(=O)c2ccccc2)cc1` [compound 30], the “% Inhibition at 1 μM” value turned out to be 0%, the “% Inhibition at 10 μM” value is 93% and the “% Inhibition at 100 μM” value came out at 97%.

On to `Cc1ccc(CC(=O)Nc2ccc(NC(=O)CSCc3ccc([N+](=O)[O-])cc3)cc2C(=O)c2ccccc2)cc1` [compound 32], for which the “% Inhibition at 1 μM” value is 0%, the “% Inhibition at 10 μM” value is on record as 0% and the “% Inhibition at 100 μM” value stood at 96%.

In the case of `COC(=O)CC(=O)Nc1ccc(NC(=O)C(C)c2ccccc2)c(C(=O)c2ccccc2)c1` (stereo not shown) [example 1, 2-[N-[3-[3-benzoyl-4-(2-phenylpropionyl)amino]phenylamino]carbamoyl]acetic Acid Methylester], the “% Inhibition at 10 μM” value was 19% and the “% Inhibition at 100 μM” value is on record as 89%.

In the case of `COC(=O)CC(=O)Nc1ccc(NC(=O)Cc2ccc(C)cc2)c(C(=O)c2ccccc2)c1` [example 2], the “% Inhibition at 10 μM” value worked out at 19% and the “% Inhibition at 100 μM” value worked out at 95%.

Take `Cc1ccc(CC(=O)Nc2ccc(NC(=O)CCC(=O)O)cc2C(=O)c2ccccc2)cc1` [example 3]: the “% Inhibition at 10 μM” value turned out to be 0% and the “% Inhibition at 100 μM” value was 38%.

As to `COC(=O)CCC(=O)Nc1ccc(NC(=O)Cc2ccc(C)cc2)c(C(=O)c2ccccc2)c1` [example 4], the “% Inhibition at 10 μM” value is 0% and the “% Inhibition at 100 μM” value came to 29%.

With `Cc1ccc(CC(=O)Nc2ccc(NC(=O)CCCC(=O)O)cc2C(=O)c2ccccc2)cc1` [example 5], the “% Inhibition at 10 μM” value is listed as 0% and the “% Inhibition at 100 μM” value worked out at 59%.

With `COC(=O)CCCC(=O)Nc1ccc(NC(=O)Cc2ccc(C)cc2)c(C(=O)c2ccccc2)c1` [example 6], the “% Inhibition at 10 μM” value was 0% and the “% Inhibition at 100 μM” value was found to be 98%.

On to `CCCCCCCCCCCCCCCCC(=O)NCC(=O)Nc1ccc(NC(=O)Cc2ccc(C)cc2)c(C(=O)c2ccccc2)c1` [example 7, N-[2-[3-benzoyl-4-[[2-(4-methylphenyl)acetyl]amino]phenylamino]-2-oxoethyl]-heptadecanoic Acid Amide], for which the inhibition at 10 µM came to 0% and the inhibition at 100 µM was 83%.

In the case of `CCCCCCCCCCCCCCC(=O)NCCCC(=O)Nc1ccc(NC(=O)Cc2ccc(C)cc2)c(C(=O)c2ccccc2)c1` [example 8, N-[4-[3-benzoyl-4-[[2-(4-methylphenyl)acetyl]amino]phenylamino]-4-oxobutyl]-pentadecanoic Acid Amide], the inhibition at 10 µM is 0% and the inhibition at 100 µM came out at 93%.

`CCCCCCCCCCCCCCNC(=O)CCCC(=O)Nc1ccc(NC(=O)Cc2ccc(C)cc2)c(C(=O)c2ccccc2)c1` [example 9]: the “% Inhibition at 10 μM” value is listed as 0% and the “% Inhibition at 100 μM” value is listed as 96%.

Regarding “N-[2-[3-benzoyl-4-[[2-(4-methylphenyl)acetyl]amino]phenylamino]-2-oxo-ethyl]-4-benzoic Acid Amide [compound 25]”, the “% Inhibition at 1 μM” value was 0%, the “% Inhibition at 10 μM” value was 0% and the “% Inhibition at 100 μM” value worked out at 86%.

As to “N-[3-benzoyl-4-[2-(4-methylphenyl)acetyl]amino]phenyl]-4-(4-nitrophenyl)butyric Acid Amide [compound 31]”, the “% Inhibition at 1 μM” value is reported as 0%, the “% Inhibition at 10 μM” value was 93% and the “% Inhibition at 100 μM” value was determined as 96%.

One may read the inhibition as the change of the read-out against control, counted positive when it falls. What is called % Inhibition is the percentage by which the read-out fell short of the control.
